The conditions of data set [1]: for T5%, decomposition temperature, 5% weight loss of the initial mass / T50%, decomposition temperature, 50% weight loss of the initial mass: TG, oxidative conditions. The protocol: The thermal stability of drugs is an essential property necessary to control the formulation method of the finished drug. […] Both the temperature at which decomposition begins (Tonset) and the temperature at which mass loss accelerates to its maximum (Tmax) were identified. […]
XRD, thermal stability (TG), phase transition temperatures (DSC), specific rotation, solubility in water, and lipophilicity were also determined. […]
Thermal stability was assessed using thermogravimetric analyses performed on a Netzsch thermomicrobalance TG 209 F1 Libra. The analysis was conducted under oxidative conditions, with a nitrogen flow (as protective gas) of 10 mL/min, an airflow of 25 mL/min, and a temperature range of 25 to 1000 °C. Samples of roughly 5 mg weight were heated at 10°/min. The onset decomposition temperature was calculated using the intersection of TG curve tangents. The temperatures associated with the quickest sample weight loss were calculated using the first derivative of the TG curve (DTG curve). […]

Data set [2] can be described thus: Permeation of the active substance through the skin, Franz diffusion cell. The data set is classed as in vitro ADME, pig. Particulars: 24 h permeation test; abstract prints human skin. The text has this:
The steady-state flux was estimated from the slope of the linear portion of the plot of cumulative mass in the acceptor phase over time.

The nature of data set [3]: physchem. Here is the method: Lipophilicity is essential for predicting the hydrophobicity and partitioning of drugs in biological systems. Therefore, the test was prepared using the shake-flask method.
A short description of data set [4]: physchem. Here is the method:
The following oils were used in the research: hemp oil, evening primrose oil, and sunflower oil, as well as the following surfactants: Tween 40, Tween 60, Span 80, and Tween 80. […] The study was carried out in screw-cap vials with continuous magnetic stirring at 100 rpm at 25 °C for 48 h. A supersaturated solution was obtained and filtered through a syringe filter with MCE (Mixed Cellulose Ester) membrane (0.45 µm, ⌀ 47 mm). The content of the compound in the solution was determined by HPLC. The HPLC analyses were performed using a Shimadzu (Kyoto, Japan) Nexera-i LC-2040C 3D High Plus liquid chromatograph equipped with a DAD/FLD detector and Kinetex® F5 column 100 Å ([…]; 150 × 4.6 mm; Phenomenex, Torrance, CA, USA) maintained at 35 °C. The mixture of acetonitrile and water 60/40 (v/v) was used as the mobile phase under isocratic conditions, with a flow rate of 0.5 mL/min. The detection wavelength was 210 nm. The collected data were acquired and processed using LabSolutions/LC Solution System. Each measurement was performed in triplicate, and the results were averaged.
This is another data set of the same source.

The source of these data is article PMC10217311 (Gels, 2023).

The structures appear in SMILES notation. In brackets after ≈: the same amount, converted by molar mass.

Consider `CC(C)Cc1ccc(C(C)C(=O)[O-])cc1.[Na+]` (stereo not drawn) [IBUNa, sodium ibuprofenate], for which, in data set [1], the “Tonset, the onset temperature of the thermal degradation” value was found to be 265.4 °C; the “T5%, decomposition temperature, 5% weight loss of the initial mass” value is 285.4 °C; the “T50%, decomposition temperature, 50% weight loss of the initial mass” value came to 445.1 °C.
A word on the logP: it is the decadic logarithm of the partition coefficient of the neutral form, usually between octanol and water. The low end stands for a more hydrophilic compound, the high end for a more lipophilic compound. The solubility is how much of the substance goes into solution per volume. Read a high solubility as much dissolved substance. In general, Solubility refers to the dissolved amount per volume that the medium holds. A lower Solubility goes with little dissolved substance. As to `CC(C)Cc1ccc(C(C)C(=O)O)cc1` (stereo not drawn) [IBU, ibuprofen], in data set [2], the “Average cumulative mass of IBU after 24 h from emulsion-based gel, times higher than commercial products” value was 1.6–4.0 times. The logP in data set [3] turned out to be 2.758 ± 0.014. Moreover, the solubility at 48 h in data set [4] (Span 80, 25 °C, aqueous with cosolvent or surfactant or cyclodextrin, thermodynamic from solid) came to 56.89 ± 0.15 mg/mL (≈ 276 mM); in data set [4] (Tween 40) it was 466.1 ± 1.71 mg/mL (≈ 2260 mM); in data set [4] (Tween 60, 25 °C, aqueous with cosolvent or surfactant or cyclodextrin, thermodynamic from solid), 519.6 ± 0.69 mg/mL (≈ 2520 mM); in data set [4] (Tween 80), 411 ± 4.18 mg/mL (≈ 1990 mM); in data set [4] (evening primrose oil, 25 °C, oil or lipid, thermodynamic from solid), 76.74 ± 0.35 mg/mL (≈ 372 mM); in data set [4] (hemp oil), 95.44 ± 0.03 mg/mL (≈ 463 mM). The Solubility in data set [4] (in Sunflower oil, 25 °C, mean ± S.D., n = 3) came to 65.10 ± 1.92 mg/mL (≈ 316 mM). The “Tonset, the onset temperature of the thermal degradation” value in data set [1] is 193.2 °C. Moreover, in data set [1], the “T5%, decomposition temperature, 5% weight loss of the initial mass” value stood at 162.1 °C. Besides, the “T50%, decomposition temperature, 50% weight loss of the initial mass” value in data set [1] turned out to be 210.3 °C.
